Assay results taken from patent publication US11666598B2 (priority 2019, dated 2023).

What was measured:
[1] = test system: Escherichia coli (BL21); test: In vitro E. coli bacterial growth assessment (optical density 600 nm); format: cell-based; details: soluble; rich media (LB broth)
Description: Escherichia coli (BL21) was expanded overnight in LB broth, then seeded (1:100) in fresh medium according to growth conditions. Experiments were carried out in modified M9 minimal medium supplemented with appropriate carbon source (Acetate: 1%, Glucose 0.4%) or LB broth (Lennox). Time course assessment of soluble small molecule inhibition was conducted in 96-well culture plates fitted with a breathable film to encourage aeration and cultured for indicated time with incremental optical density measurement (600 nm). Growth media containing solubilized acid was neutralized with sodium hydroxide (pH=7.0).
To determine polymer antimicrobial properties in solution, six well plates were cast with equal mass polymer samples and polymer free culture plate (polystyrene) controls. […] Silver nanoparticles (10 nm) and PLLA (Mn=85-110 kDa, Sigma) were used as positive and negative controls respectively. Soluble assessment of DMI was conducted using the method described for polymer samples using a 12 well plate format (1.5 mL/well).

[2] = test system: murine bone marrow derived macrophages (BMDM); test: Cytokine quantification in stimulated bone marrow derived macrophages; format: cell-based, C57BL/6 mice; details: 12 hr pretreatment, then LPS or LPS+IFNγ 12 hr; vs PLGA and insert free controls
Description: For experiments, cells were seeded at 90 000 cells cm^−2 in 6 well culture plates. […] Unstimulated cells treated with identical groups were used as a negative control.
Cytokine quantification was conducted on cell supernatants using a mouse 10-plex pro-inflammatory assay or an interferon beta single plex assay (Eve Technologies, Calgary, AB) and calculated using their standard curve. Nitrite content was determined using a Greiss Reagent Kit.

[3] = test system: isocitrate lyase (ICL); details: under glucose deprived conditions; cited from earlier work

Structure (SMILES) | concentration showing sensitivity on rich media [1] | IL-6 [2] | inhibition of isocitrate lyase (ICL) [3]
C=C(CC(=O)OC)C(=O)OC [DMI, dimethyl itaconate] | > 7.5 mM | marked | –
C=C(CC(=O)O)C(=O)O [ITA, itaconic acid] | – | – | potent inhibitor
